A short description of data set [1]: Drug metabolism in female Gottingen pig assessed as fatty acid chain oxidation mediated M+16 metabolite formation by measuring metabolite to parent compound AUC ratio at 1 mg/kg, sc measured after 198 hrs by LC-HRMS analysis. In kind it is ADME, organism-based, Sus scrofa. The note with it: in vivo.
A short description of data set [2]: AUC (0 to 24 hrs) in male Sprague-Dawley rat at 1 mg/kg, iv measured after 198 hrs by LC-HRMS analysis. Format: ADME, organism-based. The note with it: in vivo.
Data set [3] can be described thus: Induction of mast cell degranulation in human LAD2 cells assessed as beta-hexosaminidase release by measuring maximal efficacy of 4-methylumbelliferyl N-acetyl-beta-D-glucosaminide hydrolysis at 33 uM incubated for 30 mins by plate reader analysis relative to control. In kind it is toxicity, cell-based. The settings on record: probe 4-methylumbelliferyl N-acetyl-beta-D-glucosaminide.

The target of data set [4] is T1, Relaxin receptor 1 (Homo sapiens) (UniProt Q9HBX9).
T1 sequence (whole entry): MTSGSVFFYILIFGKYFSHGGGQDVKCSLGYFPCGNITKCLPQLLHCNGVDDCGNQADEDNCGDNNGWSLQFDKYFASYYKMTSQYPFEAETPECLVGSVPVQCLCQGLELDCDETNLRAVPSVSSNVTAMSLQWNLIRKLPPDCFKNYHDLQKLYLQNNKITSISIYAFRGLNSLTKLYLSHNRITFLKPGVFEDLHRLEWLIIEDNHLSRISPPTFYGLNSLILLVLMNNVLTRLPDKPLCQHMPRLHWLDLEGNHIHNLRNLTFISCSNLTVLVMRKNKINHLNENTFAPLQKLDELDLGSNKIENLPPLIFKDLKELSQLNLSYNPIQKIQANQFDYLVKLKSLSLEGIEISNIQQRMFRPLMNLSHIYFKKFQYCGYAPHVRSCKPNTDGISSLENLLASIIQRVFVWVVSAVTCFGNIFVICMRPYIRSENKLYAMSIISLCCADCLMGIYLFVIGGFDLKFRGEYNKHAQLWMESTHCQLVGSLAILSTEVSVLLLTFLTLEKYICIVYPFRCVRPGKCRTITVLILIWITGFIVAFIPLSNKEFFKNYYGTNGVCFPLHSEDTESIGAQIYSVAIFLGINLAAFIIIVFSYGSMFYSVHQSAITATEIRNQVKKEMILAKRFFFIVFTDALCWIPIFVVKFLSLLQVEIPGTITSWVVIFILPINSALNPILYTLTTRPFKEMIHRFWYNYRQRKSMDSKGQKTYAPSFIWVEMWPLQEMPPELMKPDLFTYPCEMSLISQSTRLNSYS
As to the kind of experiment: Agonist activity at human RXFP1 expressed in human OVCAR-5 cells assessed as intracellular cAMP accumulation by measuring maximal efficacy incubated for 30 mins by HTRF assay relative to control. Format: functional, cell-based. The note with it: filed as agonist.

Data set [5] is described as follows: Half-life in female Gottingen pig at 1 mg/kg, iv measured after 198 hrs by LC-HRMS analysis. The note with it: in vivo. In kind it is ADME, organism-based, Sus scrofa.
The target of data set [6] is T2, Relaxin receptor 1 (Homo sapiens, UniProt Q9HBX9).
T2 sequence (Q9HBX9 whole entry): T1 sequence (whole entry)
As to the kind of experiment: Agonist activity at human RXFP1 expressed in 2%HSA treated human OVCAR-5 cells assessed as intracellular cAMP accumulation incubated for 30 mins with 2% HSA pretreated compound by HTRF assay. In kind it is functional, cell-based.

Data set [7] can be described thus: Half-life in male Sprague-Dawley rat at 1 mg/kg, iv measured after 198 hrs by LC-HRMS analysis. In kind it is ADME, organism-based. The settings on record: in vivo.
In data set [8] the target is T2, Relaxin receptor 1. As to the kind of experiment: Agonist activity at human RXFP1 expressed in human OVCAR-5 cells assessed as intracellular cAMP accumulation incubated for 30 mins by HTRF assay. Format: functional, cell-based.
Data set [9] can be described thus: Induction of immune response in human CD4+ T cells assessed as increase in auto reactive T cells at 3 uM preincubated with monocyte-derived immature dendritic cells followed by T cell addition and further stimulated on day 7 and 14 with autologous dendritic cells and measured after 5 days post last stimulation by IFNgamma-Elispot analysis. Format: toxicity, cell-based. The note with it: 120 h.

Data set [10] can be described thus: Drug metabolism in male Beagle dog assessed as fatty acid chain oxidation mediated M+16 metabolite formation by measuring metabolite to parent compound AUC ratio at 1 mg/kg, iv measured after 198 hrs by LC-HRMS analysis. In kind it is ADME, organism-based, Canis lupus familiaris. The note with it: in vivo.
Data set [11] is described as follows: Drug metabolism in female Gottingen pig assessed as fatty acid chain oxidation mediated M+16 metabolite formation by measuring metabolite to parent compound AUC ratio at 1 mg/kg, iv measured after 198 hrs by LC-HRMS analysis. Format: ADME, organism-based, Sus scrofa. The note with it: in vivo.
The nature of data set [12]: Induction of mast cell degranulation in human LAD2 cells assessed as beta-hexosaminidase release by measuring 4-methylumbelliferyl N-acetyl-beta-D-glucosaminide hydrolysis incubated for 30 mins by plate reader analysis. In kind it is toxicity, cell-based. The note with it: probe 4-methylumbelliferyl N-acetyl-beta-D-glucosaminide.
Data set [13] concerns the target T1, Relaxin receptor 1 (Homo sapiens). As to the kind of experiment: Agonist activity at human RXFP1 expressed in 2%HSA treated human OVCAR-5 cells assessed as intracellular cAMP accumulation by measuring maximal efficacy incubated for 30 mins with 2% HSA pretreated compound by HTRF assay relative to control. In kind it is functional, cell-based. The settings on record: filed as agonist.

Data set [14] can be described thus: Drug metabolism in male Sprague-Dawley rat assessed as fatty acid chain oxidation mediated M+16 metabolite formation by measuring metabolite to parent compound AUC ratio at 3 mg/kg, sc measured after 198 hrs by LC-HRMS analysis. Format: ADME, organism-based. The note with it: in vivo.
The nature of data set [15]: Drug metabolism in male Sprague-Dawley rat assessed as fatty acid chain oxidation mediated M+16 metabolite formation by measuring metabolite to parent compound AUC ratio at 1 mg/kg, iv measured after 198 hrs by LC-HRMS analysis. In kind it is ADME, organism-based. The settings on record: in vivo.
The nature of data set [16]: Drug metabolism in male Beagle dog assessed as fatty acid chain oxidation mediated M+16 metabolite formation by measuring metabolite to parent compound AUC ratio at 3 mg/kg, sc measured after 198 hrs by LC-HRMS analysis. Format: ADME, organism-based, Canis lupus familiaris. The note with it: in vivo.
Data set [17] is described as follows: Cmax in male Sprague-Dawley rat at 3 mg/kg, sc measured after 198 hrs by LC-HRMS analysis. The settings on record: in vivo. In kind it is ADME, organism-based.
Data set [18] can be described thus: Bioavailability in male Sprague-Dawley rat at 3 mg/kg, sc measured after 198 hrs by LC-HRMS analysis. The note with it: in vivo. Format: ADME, organism-based.
A short description of data set [19]: Half-life in male Beagle dog at 1 mg/kg, iv measured after 198 hrs by LC-HRMS analysis. The settings on record: in vivo. In kind it is ADME, organism-based, Canis lupus familiaris.
A further data set deals with Rattus norvegicus. As to the kind of experiment: Chronotropic effect in pithed male Sprague-Dawley rat assessed as increase in heart rate at 1 mg/kg, iv measured after 60 mins relative to control. Format: functional.

pEC50: −log10 of the molar value. Starred links: 1 amine or outer side, 2 acyl side, 3 side chain; linkers in the order of their positions; H or OH if unused. Non-standard residues stand in square brackets, D forms with d. Residues, ends and D or L forms follow the SMILES beside them. Groups on a side chain read outwards from the residue. *: point of attachment. γGlu = O=C(O)[C@H](CCC(=O)[*:2])N[*:1]; Stearoyl = CCCCCCCCCCCCCCCCCC(=O)*; Nle = CCCC[C@H](N)C(=O)O; AEEA = NCCOCCOCC(=O)O; Aib = CC(C)(N)C(=O)O Where only a bound is given, the exact number is not on record here.

Here are results for one compound from ChEMBL document CHEMBL6096738, “Optimization of Single Relaxin B-Chain Peptide Leads to the Identification of R2R01, a Potent, Long-Acting RXFP1 Agonist for Cardiovascular and Renal Diseases” (J Med Chem, 2025).

As for `CCCCCCCCCCCCCCCCCC(=O)N[C@@H](CCC(=O)N[C@@H](CCC(=O)N[C@@H](CCC(=O)NCCOCCOCC(=O)NCCOCCOCC(=O)NCCOCCOCC(=O)NCCCC[C@H](NC(=O)[C@H](CCCCNC(C)=O)NC(=O)[C@H](CCCCN)NC(=O)[C@H](CCCNC(=N)N)NC(=O)C(C)(C)NC(=O)[C@H](CO)NC(=O)[C@H](Cc1c[nH]c2ccccc12)NC(=O)[C@@H](NC(=O)[C@H](CO)NC(=O)[C@H](CCCC)NC(=O)CNC(=O)[C@H](CCC(=O)O)NC(=O)C(C)(C)NC(=O)C(C)(C)NC(=O)[C@@H](NC(=O)[C@H](CCCCNC(C)=O)NC(=O)[C@H](C)NC(=O)[C@H](CCCNC(=N)N)NC(=O)[C@@H](NC(=O)[C@H](CCCCN)NC(=O)[C@H](CCC(=O)O)NC(=O)[C@H](CCCNC(=N)N)NC(=O)CNC(=O)[C@H](CCC(=O)O)NC(=O)[C@H](CC(C)C)NC(C)=O)C(C)C)[C@@H](C)CC)[C@@H](C)O)C(N)=O)C(=O)O)C(=O)O)C(=O)O` (Ac-LEGREKVRAK(Ac)I[Aib][Aib]EG[Nle]STWS[Aib]RKK(Ac)K([AEEA-AEEA-AEEA-γGlu-γGlu-γGlu-Stearoyl])-NH2), the “Ratio AUC” value in data set [1] is 4; in [10], 19.4; in data set [11] it was 4; in data set [14], 0.104; in data set [15] it was below 0.1; in data set [16] it was 6.6. The same compound came in with an AUC(0-t) at 198 h in data set [2] of 9.4 µM·h. Also, the Emax at 0.5 h, 33 µM in [3] came to 59.6%. For the same compound, the Emax in [4] worked out at 84%; in data set [13], 89%. In addition, the half-life in data set [5] was 7 h; in data set [7], 3.9 h; in [19], 3.4 h. Further, the pEC50 is 7.74 at Relaxin receptor 1 [6] and 9.70 on Relaxin receptor 1 [8]. In addition, the figures for the Activity result (in data set [9]; in the data set on Rattus norvegicus) were “Non-toxic” and 29%, respectively. For the same compound, in data set [12], the EC50 at 30 min came to 1260 nM. In [17], this compound had a Cmax of 1500 nM. This compound yielded a bioavailability in data set [18] of 74%.
